The text below walks through data of patent US8829007B2 (priority 2009, dated 2014).

Read-outs that look alike come from different tables or passages of the source. Some results are limits rather than exact numbers.

The test system of experiment [1] is A/PR/8/34 influenza virus. Briefly: microbe, parasite or virus in culture. Format: cell-based.
The test system of experiment [2] is influenza A virus (A/PR/8/34). Briefly: microbe, parasite or virus in culture. Format: cell-based.
[3] abbreviates: Influenza A virus, PR/8, MDCK, mean all, A/PR/8/34 influenza virus in MDCK cells, bDNA assay, read-out: EC50.
Setting [4] is: Influenza A virus, PR/8, MDCK, mean all, A/PR/8/34 infected MDCK cells, CPE assay, read-out: IC50.
Setting [5] is: mean all, A/PR/8/34 influenza virus in MDCK cells, bDNA assay, read-out: EC50.
[6] abbreviates: mean all, A/PR/8/34 infected MDCK cells, CPE assay, read-out: IC50.
[7] abbreviates: Influenza A virus, PR/8, MDCK, MDCK cells infected with A/PR/8/34, replication of influenza virus (viral RNA, bDNA), class symbols, read-out: EC50 (mean all).
[8] abbreviates: Influenza A virus, PR/8, MDCK, MDCK cells infected with A/PR/8/34, survival of infected cells, class symbols, read-out: IC50 (mean all).

Take `CCCCS(=O)(=O)N1CCC[C@H](Nc2nc(-c3c[nH]c4ncc(Cl)cc34)ncc2F)C1` [Compound 390, (S)—N-(1-(butylsulfonyl)piperidin-3-yl)-2-(5-chloro-1H-pyrrolo[2,3-b]pyridin-3-yl)-5-fluoropyrimidin-4-amine]: the EC50 in experiment [1] (setting [3]) is less than 5 µM. The IC50 in experiment [2] (setting [4]) is less than 5 µM.
`O=S(=O)(C1CC1)N1CCC[C@H](Nc2nc(-c3c[nH]c4ncc(Cl)cc34)ncc2F)C1` [Compound 391, (S)-2-(5-chloro-1H-pyrrolo[2,3-b]pyridin-3-yl)-N-(1-(cyclopropylsulfonyl)piperidin-3-yl)-5-fluoropyrimidin-4-amine]: the half-maximal effective concentration (EC50) in experiment [1] (setting [3]) was less than 5 µM. Moreover, in experiment [2] (setting [4]), the IC50 is less than 5 µM.
As for `O=S(=O)(CC1CCCC1)N1CCC[C@H](Nc2nc(-c3c[nH]c4ncc(Cl)cc34)ncc2F)C1` [Compound 392, (S)-2-(5-chloro-1H-pyrrolo[2,3-b]pyridin-3-yl)-N-(1-(cyclopentylmethylsulfonyl)piperidin-3-yl)-5-fluoropyrimidin-4-amine], the EC50 in experiment [1] (setting [3]) was less than 5 µM. In addition, the IC50 in experiment [2] (setting [4]) is less than 5 µM.
In the case of `CCS(=O)(=O)N1CCC[C@H](Nc2nc(-c3c[nH]c4ncc(Cl)cc34)ncc2F)C1` [Compound 393, (S)-2-(5-chloro-1H-pyrrolo[2,3-b]pyridin-3-yl)-N-(1-(ethylsulfonyl)piperidin-3-yl)-5-fluoropyrimidin-4-amine], the EC50 in experiment [1] (setting [3]) is less than 5 µM. The IC50 in experiment [2] (setting [4]) is less than 5 µM.
Turning to `CC(C)S(=O)(=O)N1CCC[C@H](Nc2nc(-c3c[nH]c4ncc(Cl)cc34)ncc2F)C1` [Compound 394, (S)-2-(5-chloro-1H-pyrrolo[2,3-b]pyridin-3-yl)-5-fluoro-N-(1-(isopropylsulfonyl)-piperidin-3-yl)pyrimidin-4-amine], the EC50 in experiment [1] (setting [3]) was less than 5 µM. The IC50 in experiment [2] (setting [4]) is less than 5 µM.
As to `O=C(C1CCC1)N1CCC[C@H](Nc2nc(-c3c[nH]c4ncc(Cl)cc34)ncc2F)C1` [Compound 395], the EC50 in experiment [1] (setting [3]) was less than 5 µM. Also, the IC50 in experiment [2] (setting [4]) is less than 5 µM.
As for `COCCC(=O)N1CCC[C@H](Nc2nc(-c3c[nH]c4ncc(Cl)cc34)ncc2F)C1` [Compound 396], the EC50 in experiment [1] (setting [3]) was less than 5 µM. For the same molecule, the IC50 in experiment [2] (setting [4]) was less than 5 µM.
Consider `CN1CCC[C@H](Nc2nc(-c3c[nH]c4ncc(Cl)cc34)ncc2F)C1=O` [Compound 397], for which the EC50 in experiment [1] (setting [3]) was less than 5 µM. For the same molecule, the IC50 in experiment [2] (setting [4]) was less than 5 µM.
In the case of `CS(=O)(=O)N1CC[C@H](Nc2nc(-c3c[nH]c4ncc(Cl)cc34)ncc2F)C1` [Compound 398, (S)-2-(5-chloro-1H-pyrrolo[2,3-b]pyridin-3-yl)-5-fluoro-N-(1-(methylsulfonyl)pyrrolidin-3-yl)pyrimidin-4-amine], the EC50 in experiment [1] (setting [3]) is less than 5 µM. Further, in experiment [2] (setting [4]), the IC50 is less than 5 µM.
Take `COC1CCCCC1Nc1nc(-c2c[nH]c3ncc(Cl)cc23)ncc1F` (stereo not drawn) [Compound 412, 2-(5-chloro-1H-pyrrolo[2,3-b]pyridin-3-yl)-5-fluoro-N-(2-methoxycyclohexyl)-pyrimidin-4-amine]: in experiment [1] (setting [3]), the EC50 is less than 5 µM. The IC50 in experiment [2] (setting [4]) was less than 5 µM.
Regarding `NC1CCCCC1Nc1nc(-c2c[nH]c3ncc(Cl)cc23)ncc1F` (stereo not drawn) [Compound 414], in experiment [1] (setting [5]), the EC50 is less than 5 µM. The IC50 in experiment [2] (setting [6]) was less than 5 µM.
For the molecule `O=C1NCCC[C@@H]1Nc1nc(-c2c[nH]c3ncc(Cl)cc23)ncc1F` [Compound 416], in experiment [1] (setting [3]), the EC50 was less than 5 µM. Moreover, in experiment [2] (setting [4]), the IC50 was less than 5 µM.
`O=C1NCCCC[C@@H]1Nc1nc(-c2c[nH]c3ncc(Cl)cc23)ncc1F` [Compound 417]: the EC50 in experiment [1] (setting [3]) was less than 5 µM. For the same molecule, the IC50 in experiment [2] (setting [4]) is less than 5 µM.
Regarding `CCCCS(=O)(=O)N1CCCC(Nc2ccnc(-c3c[nH]c4ncc(Cl)cc34)n2)C1` (stereo not drawn) [Compound 419], the concentration giving a half-maximal response (EC50) in experiment [1] (setting [5]) is less than 5 µM. The IC50 in experiment [2] (setting [6]) is less than 5 µM.
`COC(=O)N[C@H]1CCCC[C@@H]1Nc1nc(-c2c[nH]c3ncc(Cl)cc23)ncc1F` [Compound 425, Methyl N-[(1S,2S)-2-[[2-(5-chloro-1H-pyrrolo[2,3-b]pyridin-3-yl)-5-fluoro-pyrimidin-4-yl]amino]cyclohexyl]carbamate]: the EC50 in experiment [1] (setting [3]) is less than 5 µM. Besides, the IC50 in experiment [2] (setting [4]) is less than 5 µM.
Take `CS(=O)(=O)N[C@H]1CCCC[C@@H]1Nc1nc(-c2c[nH]c3ncc(Cl)cc23)ncc1F` [Compound 428, N-[(1S,2S)-2-[[2-(5-chloro-1H-pyrrolo[2,3-b]pyridin-3-yl)-5-fluoro-pyrimidin-4-yl]amino]cyclohexyl]methanesulfonamide]: the half-maximal effective concentration (EC50) in experiment [1] (setting [3]) is less than 5 µM. The IC50 in experiment [2] (Influenza A virus, PR/8, MDCK, exemplary values in text, survival of A/PR/8/34 infected cells, read-out: IC50) was 0.03 µM; in experiment [2] (setting [4]), less than 5 µM.
`CC(=O)N[C@H]1CCCC[C@@H]1Nc1nc(-c2c[nH]c3ncc(Cl)cc23)ncc1F` [Compound 433, N-[(1s, 2S)-2-[[2-(5-chloro-1H-pyrrolo[2,3-b]pyridin-3-yl)-5-fluoro-pyrimidin-4-yl]amino]cyclohexyl]acetamide]: in experiment [1] (setting [3]), the EC50 is less than 5 µM. Besides, in experiment [2] (setting [4]), the IC50 was less than 5 µM.
As to `CC(=O)N1CCC[C@H](Nc2nc(-c3c[nH]c4ncc(Cl)cc34)ncc2F)C1` [Compound 434], the EC50 in experiment [1] (setting [3]) is less than 5 µM. Further, the IC50 in experiment [2] (setting [4]) is less than 5 µM.
For `CCC(=O)N1CCC[C@H](Nc2nc(-c3c[nH]c4ncc(Cl)cc34)ncc2F)C1` [Compound 435], in experiment [1] (setting [3]), the EC50 is less than 5 µM. In addition, the IC50 in experiment [2] (setting [4]) was less than 5 µM.
With `CCNC(=O)N1CCC[C@H](Nc2nc(-c3c[nH]c4ncc(Cl)cc34)ncc2F)C1` [Compound 438], the EC50 in experiment [1] (setting [3]) was less than 5 µM. Moreover, the IC50 in experiment [2] (setting [4]) was less than 5 µM.
For `CC(C)NC(=O)N1CCC[C@H](Nc2nc(-c3c[nH]c4ncc(Cl)cc34)ncc2F)C1` [Compound 439], the half-maximal effective concentration (EC50) in experiment [1] (setting [3]) was less than 5 µM. Besides, the IC50 in experiment [2] (setting [4]) was less than 5 µM.
Turning to `COC(=O)N1CCC[C@H](Nc2nc(-c3c[nH]c4ncc(Cl)cc34)ncc2F)C1` [Compound 440], in experiment [1] (setting [3]), the EC50 was less than 5 µM. The half-inhibitory concentration (IC50) in experiment [2] (setting [4]) is less than 5 µM.
For the molecule `O=C(OC1CCOC1)N1CCC[C@H](Nc2nc(-c3c[nH]c4ncc(Cl)cc34)ncc2F)C1` (stereo partly drawn) [Compound 443], in experiment [1] (setting [3]), the EC50 is less than 5 µM. The IC50 in experiment [2] (setting [4]) is less than 5 µM.
Turning to `CC1(C(=O)N2CCC[C@H](Nc3nc(-c4c[nH]c5ncc(Cl)cc45)ncc3F)C2)COC1` [Compound 444], in experiment [1] (setting [3]), the EC50 is less than 5 µM. In experiment [2] (setting [4]), the IC50 was less than 5 µM.
Regarding `COC(=O)NC1CCCC(Nc2nc(-c3c[nH]c4ncc(Cl)cc34)ncc2F)C1` (stereo not drawn) [Compound 453], the EC50 in experiment [1] (setting [5]) is less than 5 µM. In addition, the half-maximal inhibitory concentration (IC50) in experiment [2] (setting [6]) is less than 5 µM.
As to `CS(=O)(=O)NC1CCCC(Nc2nc(-c3c[nH]c4ncc(Cl)cc34)ncc2F)C1` (stereo not drawn) [Compound 454, N-[3-[[2-(5-chloro-1H-pyrrolo[2,3-b]pyridin-3-yl)-5-fluoro-pyrimidin-4-yl]amino]cyclohexyl]methanesulfonamide], the EC50 in experiment [1] (setting [3]) was less than 5 µM. For the same molecule, the IC50 in experiment [2] (setting [4]) was less than 5 µM.
As for `CCN1CCC[C@H](Nc2nc(-c3c[nH]c4ncc(Cl)cc34)ncc2F)C1=O` [Compound 460], the EC50 in experiment [1] (setting [3]) was less than 5 µM. Moreover, the IC50 in experiment [2] (setting [4]) is less than 5 µM.
For `CN1CCCC[C@H](Nc2nc(-c3c[nH]c4ncc(Cl)cc34)ncc2F)C1=O` [Compound 461], the EC50 in experiment [1] (setting [3]) is less than 5 µM. Also, in experiment [2] (setting [4]), the half-maximal inhibitory concentration (IC50) is less than 5 µM.
With `CCN1CCCC[C@H](Nc2nc(-c3c[nH]c4ncc(Cl)cc34)ncc2F)C1=O` [Compound 462], the EC50 in experiment [1] (setting [3]) was less than 5 µM. The IC50 in experiment [2] (setting [4]) was 5 to 20 µM.
Take `CCCS(=O)(=O)N1CCCC(Nc2ccnc(-c3c[nH]c4ncc(Cl)cc34)n2)C1` (stereo not drawn) [Compound 464]: the EC50 in experiment [1] (setting [5]) is less than 5 µM. In experiment [2] (setting [6]), the half-inhibitory concentration (IC50) was less than 5 µM.
In the case of `CC(=O)N1CCCC(CNc2ccnc(-c3c[nH]c4ncc(Cl)cc34)n2)C1` (stereo not drawn) [Compound 490], in experiment [1] (MDCK cells infected with A/PR/8/34, replication of influenza virus (viral RNA, bDNA), class symbols, read-out: EC50 (mean all)), the EC50 is less than 5 µM. Further, in experiment [2] (MDCK cells infected with A/PR/8/34, survival of infected cells, class symbols, read-out: IC50 (mean all)), the IC50 was less than 5 µM.
Regarding `COCCC(=O)N1CCC[C@H](CNc2ccnc(-c3c[nH]c4ncc(Cl)cc34)n2)C1` [Compound 493, (R)-1-(3-((2-(5-chloro-1H-pyrrolo[2,3-b]pyridin-3-yl)pyrimidin-4-ylamino)methyl)piperidin-1-yl)-3-methoxypropan-1-one], the EC50 in experiment [1] (setting [7]) is less than 5 µM. Further, the IC50 in experiment [2] (setting [8]) was less than 5 µM.
In the case of `CC(=O)N1CCCC(Nc2nc(-c3c[nH]c4ncc(Cl)cc34)ncc2F)CC1` (stereo not drawn) [Compound 497, 1-(4-(2-(5-chloro-1H-pyrrolo[2,3-b]pyridin-3-yl)-5-fluoropyrimidin-4-ylamino)azepan-1-yl)ethanone], the EC50 in experiment [1] (setting [7]) is less than 5 µM. Also, the IC50 in experiment [2] (setting [8]) is less than 5 µM.
`CN(C)C(=O)N1CCCC(Nc2nc(-c3c[nH]c4ncc(Cl)cc34)ncc2F)CC1` (stereo not drawn) [Compound 499, 4-(2-(5-chloro-1H-pyrrolo[2,3-b]pyridin-3-yl)-5-fluoropyrimidin-4-ylamino)-N,N-dimethylazepane-1-carboxamide]: the EC50 in experiment [1] (setting [7]) was less than 5 µM. The IC50 in experiment [2] (setting [8]) was less than 5 µM.
As for `O=C1NCCCC[C@@H]1Nc1ccnc(-c2c[nH]c3ncc(Cl)cc23)n1` [Compound 500], the concentration for a half-maximal effect (EC50) in experiment [1] (setting [7]) was less than 5 µM. Moreover, in experiment [2] (setting [8]), the IC50 is less than 5 µM.
Consider `O=C1NCCCC[C@@H]1Nc1nc(-c2c[nH]c3ncc(C(F)(F)F)cc23)ncc1F` [Compound 502, (S)-3-(5-fluoro-2-(5-(trifluoromethyl)-1H-pyrrolo[2,3-b]pyridin-3-yl)pyrimidin-4-ylamino)azepan-2-one], for which the EC50 in experiment [1] (setting [7]) is less than 5 µM. In addition, the IC50 in experiment [2] (setting [8]) was less than 5 µM.
For `CC1(C)CCC[C@H](Nc2nc(-c3c[nH]c4ncc(Cl)cc34)ncc2F)C(=O)N1` [Compound 504], the EC50 in experiment [1] (setting [7]) was less than 5 µM. The concentration for half-maximal inhibition (IC50) in experiment [2] (setting [8]) was 5 to 20 µM.
